# Reference: US8211935B2, “Heterocyclic derivatives for modulation of calcium channels” (Vertex Pharmaceuticals Incorporated, priority 2004, dated 2012)
# Where two headings read alike, the source gives them in different places.
# Columns and labels:
# [1] = neuropathic pain; cited from earlier work
# CaV2.2 = molecular target: T1, CaV2.2 (Homo sapiens, UniProt Q00975); test: VIPR optical membrane potential assay with electrical stimulation; type: cell-based
# T1 construct: expressed in transfected cells; host or cells: HEK293
# T1 sequence (Q00975 whole entry): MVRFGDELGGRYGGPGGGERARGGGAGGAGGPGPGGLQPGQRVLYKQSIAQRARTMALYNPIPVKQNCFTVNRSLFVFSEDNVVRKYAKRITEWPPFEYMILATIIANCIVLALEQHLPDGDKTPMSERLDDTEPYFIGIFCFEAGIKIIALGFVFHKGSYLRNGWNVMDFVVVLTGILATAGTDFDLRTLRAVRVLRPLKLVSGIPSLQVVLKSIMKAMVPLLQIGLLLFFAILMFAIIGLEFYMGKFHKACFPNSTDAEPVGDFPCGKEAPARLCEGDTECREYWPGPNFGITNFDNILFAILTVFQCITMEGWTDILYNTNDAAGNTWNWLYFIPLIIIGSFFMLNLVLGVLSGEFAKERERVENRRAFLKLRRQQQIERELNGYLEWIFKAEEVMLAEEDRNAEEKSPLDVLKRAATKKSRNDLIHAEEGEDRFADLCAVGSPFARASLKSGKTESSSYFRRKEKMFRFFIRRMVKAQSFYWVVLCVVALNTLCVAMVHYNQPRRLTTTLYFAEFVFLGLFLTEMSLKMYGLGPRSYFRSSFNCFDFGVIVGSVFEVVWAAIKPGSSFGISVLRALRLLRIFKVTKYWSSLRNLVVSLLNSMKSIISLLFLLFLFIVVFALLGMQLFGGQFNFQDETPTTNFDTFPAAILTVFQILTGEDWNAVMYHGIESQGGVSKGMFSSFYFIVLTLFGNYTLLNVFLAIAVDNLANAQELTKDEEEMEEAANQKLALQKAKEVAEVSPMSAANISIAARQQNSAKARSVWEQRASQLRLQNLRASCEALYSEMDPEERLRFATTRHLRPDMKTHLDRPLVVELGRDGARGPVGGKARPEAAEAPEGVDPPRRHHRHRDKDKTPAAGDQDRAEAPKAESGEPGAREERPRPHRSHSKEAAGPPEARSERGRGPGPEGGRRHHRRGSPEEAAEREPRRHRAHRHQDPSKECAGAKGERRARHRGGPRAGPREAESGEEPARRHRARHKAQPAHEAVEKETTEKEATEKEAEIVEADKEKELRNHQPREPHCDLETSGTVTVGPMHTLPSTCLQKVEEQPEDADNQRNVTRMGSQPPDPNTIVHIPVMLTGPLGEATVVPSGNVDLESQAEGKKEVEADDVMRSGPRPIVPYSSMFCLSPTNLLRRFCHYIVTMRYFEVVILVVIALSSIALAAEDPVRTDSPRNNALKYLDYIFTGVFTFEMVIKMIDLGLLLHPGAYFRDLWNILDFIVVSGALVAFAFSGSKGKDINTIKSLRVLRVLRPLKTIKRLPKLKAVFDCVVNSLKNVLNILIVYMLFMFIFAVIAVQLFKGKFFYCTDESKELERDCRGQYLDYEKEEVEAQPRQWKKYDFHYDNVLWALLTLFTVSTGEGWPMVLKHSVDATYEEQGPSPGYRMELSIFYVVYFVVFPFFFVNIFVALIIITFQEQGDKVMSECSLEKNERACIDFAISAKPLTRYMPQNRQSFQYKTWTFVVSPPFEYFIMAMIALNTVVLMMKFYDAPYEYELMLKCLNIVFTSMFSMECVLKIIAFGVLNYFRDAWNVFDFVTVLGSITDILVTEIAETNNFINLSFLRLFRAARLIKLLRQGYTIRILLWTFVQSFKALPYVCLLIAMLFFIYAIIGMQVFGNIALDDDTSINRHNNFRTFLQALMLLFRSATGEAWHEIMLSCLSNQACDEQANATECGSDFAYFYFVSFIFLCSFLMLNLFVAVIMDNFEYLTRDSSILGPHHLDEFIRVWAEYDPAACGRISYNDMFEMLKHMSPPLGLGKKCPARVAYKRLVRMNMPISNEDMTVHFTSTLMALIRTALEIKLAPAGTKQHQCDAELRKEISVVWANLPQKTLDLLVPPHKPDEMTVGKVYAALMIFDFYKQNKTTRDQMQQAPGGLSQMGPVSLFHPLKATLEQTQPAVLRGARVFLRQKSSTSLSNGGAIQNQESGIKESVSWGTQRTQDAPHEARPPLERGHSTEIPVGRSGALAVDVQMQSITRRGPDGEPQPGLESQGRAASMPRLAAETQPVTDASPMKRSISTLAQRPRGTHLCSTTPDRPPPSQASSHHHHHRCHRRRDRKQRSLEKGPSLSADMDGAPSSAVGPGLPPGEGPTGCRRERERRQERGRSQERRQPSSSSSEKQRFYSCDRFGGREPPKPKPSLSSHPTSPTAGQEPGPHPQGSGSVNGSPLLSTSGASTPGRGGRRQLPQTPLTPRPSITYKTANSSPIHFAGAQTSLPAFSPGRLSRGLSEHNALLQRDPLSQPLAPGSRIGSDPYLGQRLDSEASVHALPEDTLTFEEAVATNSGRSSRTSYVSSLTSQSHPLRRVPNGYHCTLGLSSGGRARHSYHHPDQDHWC
# T1 sequence (P54284 whole entry partner): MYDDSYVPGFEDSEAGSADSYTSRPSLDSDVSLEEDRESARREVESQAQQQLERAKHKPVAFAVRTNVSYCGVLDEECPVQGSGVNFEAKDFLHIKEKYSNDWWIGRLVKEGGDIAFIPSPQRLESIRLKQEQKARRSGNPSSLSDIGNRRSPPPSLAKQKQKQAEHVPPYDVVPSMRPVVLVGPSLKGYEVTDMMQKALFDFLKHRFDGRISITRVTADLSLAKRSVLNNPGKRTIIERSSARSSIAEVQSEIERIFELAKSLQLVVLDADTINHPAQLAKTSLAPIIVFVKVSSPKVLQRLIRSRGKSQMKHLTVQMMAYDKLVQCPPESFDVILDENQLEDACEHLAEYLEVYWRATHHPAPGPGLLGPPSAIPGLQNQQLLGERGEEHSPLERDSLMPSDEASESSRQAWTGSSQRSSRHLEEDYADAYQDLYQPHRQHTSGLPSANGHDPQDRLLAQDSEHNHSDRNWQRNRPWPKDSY
# T1 sequence (P54289 25-946 partner limits assumed): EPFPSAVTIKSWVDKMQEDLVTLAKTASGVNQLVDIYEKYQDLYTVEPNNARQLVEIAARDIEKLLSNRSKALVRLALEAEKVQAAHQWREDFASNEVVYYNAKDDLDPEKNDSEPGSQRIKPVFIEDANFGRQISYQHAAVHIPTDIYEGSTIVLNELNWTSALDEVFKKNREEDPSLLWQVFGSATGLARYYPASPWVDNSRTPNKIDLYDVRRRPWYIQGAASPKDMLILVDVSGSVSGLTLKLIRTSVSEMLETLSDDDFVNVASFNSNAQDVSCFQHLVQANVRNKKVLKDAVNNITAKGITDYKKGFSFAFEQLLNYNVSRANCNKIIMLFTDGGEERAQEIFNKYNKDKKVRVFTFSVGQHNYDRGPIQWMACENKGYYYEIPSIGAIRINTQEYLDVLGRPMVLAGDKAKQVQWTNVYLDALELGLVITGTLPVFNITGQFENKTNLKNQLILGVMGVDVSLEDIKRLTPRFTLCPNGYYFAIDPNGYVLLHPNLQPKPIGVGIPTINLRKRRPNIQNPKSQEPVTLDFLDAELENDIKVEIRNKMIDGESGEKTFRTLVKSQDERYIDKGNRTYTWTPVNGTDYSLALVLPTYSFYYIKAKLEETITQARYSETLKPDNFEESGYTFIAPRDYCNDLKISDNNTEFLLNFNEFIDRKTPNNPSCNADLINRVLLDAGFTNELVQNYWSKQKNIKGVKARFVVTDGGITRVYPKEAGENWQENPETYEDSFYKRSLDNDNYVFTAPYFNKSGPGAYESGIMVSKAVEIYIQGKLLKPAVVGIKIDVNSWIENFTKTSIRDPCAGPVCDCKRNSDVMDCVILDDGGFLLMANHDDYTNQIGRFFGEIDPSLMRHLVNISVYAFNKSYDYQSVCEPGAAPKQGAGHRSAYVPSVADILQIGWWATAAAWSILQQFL
# T1 sequence (P54289 947-1103 partner limits assumed): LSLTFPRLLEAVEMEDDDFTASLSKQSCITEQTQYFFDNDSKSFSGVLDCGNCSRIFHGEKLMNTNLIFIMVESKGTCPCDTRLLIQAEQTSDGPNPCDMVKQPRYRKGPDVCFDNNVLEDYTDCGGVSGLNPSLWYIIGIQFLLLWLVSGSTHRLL
# Outline: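 HEK293 cells stably expressing CaV2.2, stained with CC2-DMPE (10 μM final) and oxonol voltage-sensitive dyes, compound added with BaCl2. Membrane potential response evoked by 3-5 s electrical stimulation. Read as background-subtracted 460/580 nm emission ratio, response R=Rf/Ri, normalized to mibefradil positive and no-drug negative controls.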
# [2] = Table 3, biological assay data, read-out: IC50
SMILES,IC50 (CaV2.2; [2]),also measured
NCC1(CC(=O)O)CCCCC1 [Gabapentin],–,patients in whom the drug works [1]: 60%
Cc1c(C(=O)NC2CC2)oc2ccc(S(=O)(=O)N3CCCC(F)(F)C3)cc12 [compound 426],5 to 20 µM,–
O=C(NC1CCCCC1)c1cc2cc(S(=O)(=O)N3CCCCCC3)ccc2o1 [compound 427],< 5 µM,–
O=C(NC1CC1)c1cc2cc(NS(=O)(=O)c3ccccc3)ccc2[nH]1 [compound 428],< 20 µM,–
O=C(NCC1CCCO1)c1cc2cc(S(=O)(=O)N3CCCCCC3)ccc2o1 (stereo not shown) [compound 429],5 to 20 µM,–
CC1CC(C)CN(S(=O)(=O)c2ccc3oc(C(=O)N(C)Cc4ccccc4)cc3c2)C1 (stereo not shown) [compound 430],< 5 µM,–
Cc1c(C(N)=O)oc2ccc(S(=O)(=O)N3CCC(C)CC3)cc12 [compound 431],5 to 20 µM,–
Cc1c(C(=O)N2CCC3(CC2)OCCO3)oc2ccc(S(=O)(=O)N3CCOCC3)cc12 [compound 432],–,IC50 (CaV2.2): < 20 µM
CC1CCN(S(=O)(=O)c2ccc3oc(C(=O)N(C)Cc4ccccc4)cc3c2)CC1 [compound 433],< 5 µM,–
CC1CCN(S(=O)(=O)c2ccc3[nH]cc(C(=O)NC4CC4)c3c2)CC1 [compound 434],< 20 µM,–
CNC(=O)c1cc2cc(S(=O)(=O)N3CC(C)CC(C)C3)ccc2n1C (stereo not shown) [compound 435],< 5 µM,–
CC1CCN(S(=O)(=O)c2ccc3[nH]c(C(=O)N4CCCCC4C)cc3c2)CC1 (stereo not shown) [compound 436],< 5 µM,–
CC1CCCCN1C(=O)c1cc2cc(S(=O)(=O)N3CCCCCC3)ccc2[nH]1 (stereo not shown) [compound 437],< 20 µM,–
CNC(=O)c1cc2cc(S(=O)(=O)N3CCC(C)CC3)ccc2o1 [compound 438],5 to 20 µM,–
CCOC(=O)N1CCN(C(=O)c2[nH]c3ccc(S(=O)(=O)N4CC(C)CC(C)C4)cc3c2C)CC1 (stereo not shown) [compound 439],< 5 µM,–
Cc1c(C(=O)N2CCCCC2)[nH]c2ccc(S(=O)(=O)N3CC(C)CC(C)C3)cc12 (stereo not shown) [compound 440],< 5 µM,–
Cc1c(C(=O)NCc2ccccc2)oc2ccc(S(=O)(=O)N3CC(C)CC(C)C3)cc12 (stereo not shown) [compound 441],< 5 µM,–
CNC(=O)c1[nH]c2ccc(S(=O)(=O)N3CCCCCC3)cc2c1C [compound 442],5 to 20 µM,–
Cc1c(C(=O)N(C(C)C)C(C)C)oc2ccc(S(=O)(=O)N3CCC(C)CC3)cc12 [compound 443],5 to 20 µM,–
CCNC(=O)c1oc2ccc(S(=O)(=O)N(CC)CC)cc2c1C [compound 444],< 20 µM,–
Cc1c(C(=O)NCCc2ccccc2)oc2ccc(S(=O)(=O)N3CCCC(C)C3)cc12 (stereo not shown) [compound 445],< 5 µM,–
Cc1c(C(=O)NC2CCCCC2)oc2ccc(S(=O)(=O)N3CCCCCC3)cc12 [compound 446],5 to 20 µM,–
Cc1c(C(=O)NC2CC2)oc2ccc(S(=O)(=O)Nc3nccs3)cc12 [compound 447],< 20 µM,–

SMILES,IC50 (CaV2.2; [2]),also measured
CC1CCN(S(=O)(=O)c2ccc3[nH]c(C(=O)NC4CCCCC4)cc3c2)CC1 [compound 448],5 to 20 µM,–
Cc1c(C(=O)N2CC(C)OC(C)C2)oc2ccc(S(=O)(=O)N3CCC(C)CC3)cc12 (stereo not shown) [compound 449],5 to 20 µM,–
Cc1c(C(=O)NC(C)C)[nH]c2ccc(S(=O)(=O)N3CC(C)CC(C)C3)cc12 (stereo not shown) [compound 450],5 to 20 µM,–
Cc1c(C(=O)N2CCCCC2)oc2ccc(S(=O)(=O)N3CC(C)CC(C)C3)cc12 (stereo not shown) [compound 451],< 5 µM,–
CC1CC(C)CN(S(=O)(=O)c2ccc3c(c2)cc(C(=O)NCc2ccccc2)n3S(=O)(=O)c2ccccc2)C1 (stereo not shown) [compound 452],< 5 µM,–
Cc1c(C(=O)NC2CC2)oc2ccc(S(=O)(=O)Nc3cccnc3)cc12 [compound 453],< 20 µM,–
CNC(=O)c1cc2cc(S(=O)(=O)N3CC(C)CC(C)C3)ccc2o1 (stereo not shown) [compound 454],< 5 µM,–
CC1CC(C)CN(S(=O)(=O)c2ccc3oc(C(=O)NC4CCCCC4)cc3c2)C1 (stereo not shown) [compound 455],< 5 µM,–
CC1CCN(S(=O)(=O)c2ccc3oc(C(=O)NCC4CCCO4)cc3c2)CC1 (stereo not shown) [compound 456],5 to 20 µM,–
Cc1c(C(=O)N2CCCC2)[nH]c2ccc(S(=O)(=O)N3CCC(C)CC3)cc12 [compound 457],5 to 20 µM,–
CCN(CC)S(=O)(=O)c1ccc2oc(C(=O)NCC3CCOCC3)c(C)c2c1 [compound 458],< 20 µM,–
Cc1c(C(=O)NC2CCCCC2)oc2ccc(S(=O)(=O)N3CCCCC3)cc12 [compound 459],5 to 20 µM,–
Cc1c(C(=O)N2CCCCC2)oc2ccc(S(=O)(=O)N3CCC(C)CC3)cc12 [compound 460],5 to 20 µM,–
CC1CC(C)CN(S(=O)(=O)c2ccc3c(c2)cc(C(=O)N(C)C)n3C)C1 (stereo not shown) [compound 461],< 5 µM,–
Cc1c(C(=O)N2CCc3ccccc3C2)oc2ccc(S(=O)(=O)N3CCCCC3)cc12 [compound 462],< 5 µM,–
CCCN(CC1CC1)C(=O)c1cc2cc(S(=O)(=O)N3CC(C)CC(C)C3)ccc2n1C (stereo not shown) [compound 463],< 5 µM,–
Cc1c(C(=O)N(C)Cc2ccccc2)oc2ccc(S(=O)(=O)N3CCC(C)CC3)cc12 [compound 464],< 5 µM,–
Cc1c(C(=O)NC2CCCCC2)oc2ccc(S(=O)(=O)N3CCC(C)CC3)cc12 [compound 465],5 to 20 µM,–
Cc1c(C(=O)N2CCC(C)CC2)oc2ccc(S(=O)(=O)N3CC(C)CC(C)C3)cc12 (stereo not shown) [compound 466],< 5 µM,–
Cc1c(C(=O)NCCC2CCOCC2)oc2ccc(S(=O)(=O)N3CCCC(C)C3)cc12 (stereo not shown) [compound 467],< 5 µM,–
Cc1c(C(=O)N2CCCCC2)oc2ccc(S(=O)(=O)N3CCCCCC3)cc12 [compound 468],5 to 20 µM,–
CCNC(=O)c1cc2cc(S(=O)(=O)N3CC(C)CC(C)C3)ccc2o1 (stereo not shown) [compound 469],< 5 µM,–
CC1CC(C)CN(S(=O)(=O)c2ccc3c(c2)cc(C(=O)N2CCCCC2)n3S(=O)(=O)C(C)C)C1 (stereo not shown) [compound 470],5 to 20 µM,–
